Assay results taken from the supplement of paper PMC10307832.

How the values were obtained:
Assay in all cases: relative viability (nuclei count vs DMSO), 5 days (fraction); higher = more cells survive
BMX-IN-1 + Palbociclib = compound: C=CC(=O)Nc1cc(-n2c(=O)ccc3cnc4ccc(-c5ccc(NS(C)(=O)=O)cc5)cc4c32)ccc1C [BMX-IN-1] + CC(=O)c1c(C)c2cnc(Nc3ccc(N4CCNCC4)cn3)nc2n(C2CCCC2)c1=O [Palbociclib] (partner 0.5 µM)
Procedure, shortened: (§1)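 Relative viability was taken as the ratio of nuclei in treated wells to nuclei in vehicle wells. Lung cancer cell lines in 1536-well plates received compounds by pin tool one day after seeding, either one drug alone or a fixed anchor-drug dose plus five library-drug doses (not always all listed) in √10 steps. Nuclei were counted on 4× images after 5 days of treatment, and values are medians of duplicate plates.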

BMX-IN-1 + Navitoclax = compound: C=CC(=O)Nc1cc(-n2c(=O)ccc3cnc4ccc(-c5ccc(NS(C)(=O)=O)cc5)cc4c32)ccc1C [BMX-IN-1] + CC1(C)CCC(c2ccc(Cl)cc2)=C(CN2CCN(c3ccc(C(=O)NS(=O)(=O)c4ccc(N[C@H](CCN5CCOCC5)CSc5ccccc5)c(S(=O)(=O)C(F)(F)F)c4)cc3)CC2)C1 [Navitoclax] (partner 0.5 µM)
Procedure, shortened: as §1

BMX-IN-1 + Vorinostat = compound: C=CC(=O)Nc1cc(-n2c(=O)ccc3cnc4ccc(-c5ccc(NS(C)(=O)=O)cc5)cc4c32)ccc1C [BMX-IN-1] + O=C(CCCCCCC(=O)Nc1ccccc1)NO [Vorinostat] (partner 1 µM)
Procedure, shortened: as §1

PAC-1 + AZD7762 = compound: C=CCc1cccc(/C=N/NC(=O)CN2CCN(Cc3ccccc3)CC2)c1O [PAC-1] + NC(=O)Nc1cc(-c2cccc(F)c2)sc1C(=O)N[C@H]1CCCNC1 [AZD7762] (partner 0.2 µM)
Procedure, shortened: as §1

PAC-1 + Vorinostat = compound: C=CCc1cccc(/C=N/NC(=O)CN2CCN(Cc3ccccc3)CC2)c1O [PAC-1] + O=C(CCCCCCC(=O)Nc1ccccc1)NO [Vorinostat] (partner 1 µM)
Procedure, shortened: as §1

Cell Line: NCI-H2405
- relative viability (BMX-IN-1 + Palbociclib; first compound 0.02 µM): 0.574
- relative viability (BMX-IN-1 + Palbociclib; first compound 0.2 µM): 0.585
- relative viability (BMX-IN-1 + Palbociclib; first compound 0.6325 µM): 0.584
- relative viability (BMX-IN-1 + Palbociclib; first compound 2 µM): 0.542
- relative viability (BMX-IN-1 + Navitoclax; first compound 0.02 µM): 0.957
- relative viability (BMX-IN-1 + Navitoclax; first compound 0.2 µM): 0.846
- relative viability (BMX-IN-1 + Navitoclax; first compound 0.6325 µM): 0.915
- relative viability (BMX-IN-1 + Navitoclax; first compound 2 µM): 0.836
- relative viability (BMX-IN-1 + Vorinostat; first compound 0.02 µM): 1.05
- relative viability (BMX-IN-1 + Vorinostat; first compound 0.2 µM): 1.13
- relative viability (BMX-IN-1 + Vorinostat; first compound 0.6325 µM): 1.16
- relative viability (BMX-IN-1 + Vorinostat; first compound 2 µM): 0.955
- relative viability (PAC-1 + AZD7762; first compound 0.02 µM): 0.648
- relative viability (PAC-1 + AZD7762; first compound 0.06325 µM): 0.828
- relative viability (PAC-1 + AZD7762; first compound 0.2 µM): 0.86
- relative viability (PAC-1 + AZD7762; first compound 2 µM): 0.802
- relative viability (PAC-1 + Vorinostat; first compound 0.02 µM): 1.05
- relative viability (PAC-1 + Vorinostat; first compound 0.06325 µM): 1.12
- relative viability (PAC-1 + Vorinostat; first compound 0.2 µM): 1.14
- relative viability (PAC-1 + Vorinostat; first compound 2 µM): 1.15

Cell Line: A-427
- relative viability (BMX-IN-1 + Palbociclib; first compound 0.02 µM): 0.488
- relative viability (BMX-IN-1 + Palbociclib; first compound 0.2 µM): 0.573
- relative viability (BMX-IN-1 + Palbociclib; first compound 0.6325 µM): 0.571
- relative viability (BMX-IN-1 + Palbociclib; first compound 2 µM): 0.504
- relative viability (BMX-IN-1 + Navitoclax; first compound 0.02 µM): 1.04
- relative viability (BMX-IN-1 + Navitoclax; first compound 0.2 µM): 0.987
- relative viability (BMX-IN-1 + Navitoclax; first compound 0.6325 µM): 0.971
- relative viability (BMX-IN-1 + Navitoclax; first compound 2 µM): 1.01
- relative viability (BMX-IN-1 + Vorinostat; first compound 0.02 µM): 0.841
- relative viability (BMX-IN-1 + Vorinostat; first compound 0.2 µM): 0.897
- relative viability (BMX-IN-1 + Vorinostat; first compound 0.6325 µM): 0.931
- relative viability (BMX-IN-1 + Vorinostat; first compound 2 µM): 0.856
- relative viability (PAC-1 + AZD7762; first compound 0.02 µM): 0.774
- relative viability (PAC-1 + AZD7762; first compound 0.06325 µM): 0.734
- relative viability (PAC-1 + AZD7762; first compound 0.2 µM): 0.713
- relative viability (PAC-1 + AZD7762; first compound 2 µM): 0.702
- relative viability (PAC-1 + Vorinostat; first compound 0.02 µM): 0.891
- relative viability (PAC-1 + Vorinostat; first compound 0.06325 µM): 0.889
- relative viability (PAC-1 + Vorinostat; first compound 0.2 µM): 0.86
- relative viability (PAC-1 + Vorinostat; first compound 2 µM): 0.8

Cell Line: NCI-H2170
- relative viability (BMX-IN-1 + Palbociclib; first compound 0.02 µM): 0.426
- relative viability (BMX-IN-1 + Palbociclib; first compound 0.2 µM): 0.421
- relative viability (BMX-IN-1 + Palbociclib; first compound 0.6325 µM): 0.447
- relative viability (BMX-IN-1 + Palbociclib; first compound 2 µM): 0.373
- relative viability (BMX-IN-1 + Navitoclax; first compound 0.02 µM): 0.742
- relative viability (BMX-IN-1 + Navitoclax; first compound 0.2 µM): 0.634
- relative viability (BMX-IN-1 + Navitoclax; first compound 0.6325 µM): 0.689
- relative viability (BMX-IN-1 + Navitoclax; first compound 2 µM): 0.623
- relative viability (BMX-IN-1 + Vorinostat; first compound 0.02 µM): 0.724
- relative viability (BMX-IN-1 + Vorinostat; first compound 0.2 µM): 1.06
- relative viability (BMX-IN-1 + Vorinostat; first compound 0.6325 µM): 0.79
- relative viability (BMX-IN-1 + Vorinostat; first compound 2 µM): 0.849
- relative viability (PAC-1 + AZD7762; first compound 0.02 µM): 0.874
- relative viability (PAC-1 + AZD7762; first compound 0.06325 µM): 0.856
- relative viability (PAC-1 + AZD7762; first compound 0.2 µM): 0.928
- relative viability (PAC-1 + AZD7762; first compound 2 µM): 0.846
- relative viability (PAC-1 + Vorinostat; first compound 0.02 µM): 0.894
- relative viability (PAC-1 + Vorinostat; first compound 0.06325 µM): 0.809
- relative viability (PAC-1 + Vorinostat; first compound 0.2 µM): 0.795
- relative viability (PAC-1 + Vorinostat; first compound 2 µM): 0.775

Cell Line: RERF-LC-KJ
- relative viability (BMX-IN-1 + Palbociclib; first compound 0.02 µM): 1.15
- relative viability (BMX-IN-1 + Palbociclib; first compound 0.2 µM): 1.11
- relative viability (BMX-IN-1 + Palbociclib; first compound 0.6325 µM): 1.18
- relative viability (BMX-IN-1 + Palbociclib; first compound 2 µM): 1.16
- relative viability (BMX-IN-1 + Navitoclax; first compound 0.02 µM): 0.821
- relative viability (BMX-IN-1 + Navitoclax; first compound 0.2 µM): 0.994
- relative viability (BMX-IN-1 + Navitoclax; first compound 0.6325 µM): 1.3
- relative viability (BMX-IN-1 + Navitoclax; first compound 2 µM): 0.749
- relative viability (BMX-IN-1 + Vorinostat; first compound 0.02 µM): 0.77
- relative viability (BMX-IN-1 + Vorinostat; first compound 0.2 µM): 0.734
- relative viability (BMX-IN-1 + Vorinostat; first compound 0.6325 µM): 0.824
- relative viability (BMX-IN-1 + Vorinostat; first compound 2 µM): 0.45
- relative viability (PAC-1 + AZD7762; first compound 0.02 µM): 1.08
- relative viability (PAC-1 + AZD7762; first compound 0.06325 µM): 0.883
- relative viability (PAC-1 + AZD7762; first compound 0.2 µM): 0.934
- relative viability (PAC-1 + AZD7762; first compound 2 µM): 1.01
- relative viability (PAC-1 + Vorinostat; first compound 0.02 µM): 0.715
- relative viability (PAC-1 + Vorinostat; first compound 0.06325 µM): 0.67
- relative viability (PAC-1 + Vorinostat; first compound 0.2 µM): 0.475
- relative viability (PAC-1 + Vorinostat; first compound 2 µM): 0.711

Cell Line: LXF-289
- relative viability (BMX-IN-1 + Palbociclib; first compound 0.02 µM): 0.65
- relative viability (BMX-IN-1 + Palbociclib; first compound 0.2 µM): 0.615
- relative viability (BMX-IN-1 + Palbociclib; first compound 0.6325 µM): 0.639
- relative viability (BMX-IN-1 + Palbociclib; first compound 2 µM): 0.588
- relative viability (BMX-IN-1 + Navitoclax; first compound 0.02 µM): 0.954
- relative viability (BMX-IN-1 + Navitoclax; first compound 0.2 µM): 1.06
- relative viability (BMX-IN-1 + Navitoclax; first compound 0.6325 µM): 1.03
- relative viability (BMX-IN-1 + Navitoclax; first compound 2 µM): 1.01
- relative viability (BMX-IN-1 + Vorinostat; first compound 0.02 µM): 0.824
- relative viability (BMX-IN-1 + Vorinostat; first compound 0.2 µM): 0.876
- relative viability (BMX-IN-1 + Vorinostat; first compound 0.6325 µM): 0.912
- relative viability (BMX-IN-1 + Vorinostat; first compound 2 µM): 0.882
- relative viability (PAC-1 + AZD7762; first compound 0.02 µM): 1.09
- relative viability (PAC-1 + AZD7762; first compound 0.06325 µM): 1.11
- relative viability (PAC-1 + AZD7762; first compound 0.2 µM): 0.987
- relative viability (PAC-1 + AZD7762; first compound 2 µM): 1.08
- relative viability (PAC-1 + Vorinostat; first compound 0.02 µM): 0.793
- relative viability (PAC-1 + Vorinostat; first compound 0.06325 µM): 0.765
- relative viability (PAC-1 + Vorinostat; first compound 0.2 µM): 0.731
- relative viability (PAC-1 + Vorinostat; first compound 2 µM): 0.732

Cell Line: LC-2-ad
- relative viability (BMX-IN-1 + Palbociclib; first compound 0.02 µM): 0.498
- relative viability (BMX-IN-1 + Palbociclib; first compound 0.2 µM): 0.574
- relative viability (BMX-IN-1 + Palbociclib; first compound 0.6325 µM): 0.543
- relative viability (BMX-IN-1 + Palbociclib; first compound 2 µM): 0.509
- relative viability (BMX-IN-1 + Navitoclax; first compound 0.02 µM): 0.55
- relative viability (BMX-IN-1 + Navitoclax; first compound 0.2 µM): 0.504
- relative viability (BMX-IN-1 + Navitoclax; first compound 0.6325 µM): 0.776
- relative viability (BMX-IN-1 + Navitoclax; first compound 2 µM): 0.513
- relative viability (BMX-IN-1 + Vorinostat; first compound 0.02 µM): 0.74
- relative viability (BMX-IN-1 + Vorinostat; first compound 0.2 µM): 0.766
- relative viability (BMX-IN-1 + Vorinostat; first compound 0.6325 µM): 0.674
- relative viability (BMX-IN-1 + Vorinostat; first compound 2 µM): 0.783
- relative viability (PAC-1 + AZD7762; first compound 0.02 µM): 0.76
- relative viability (PAC-1 + AZD7762; first compound 0.06325 µM): 0.868
- relative viability (PAC-1 + AZD7762; first compound 0.2 µM): 0.859
- relative viability (PAC-1 + AZD7762; first compound 2 µM): 0.902
- relative viability (PAC-1 + Vorinostat; first compound 0.02 µM): 0.743
- relative viability (PAC-1 + Vorinostat; first compound 0.06325 µM): 0.632
- relative viability (PAC-1 + Vorinostat; first compound 0.2 µM): 0.691
- relative viability (PAC-1 + Vorinostat; first compound 2 µM): 0.698

Cell Line: NCI-H23
- relative viability (BMX-IN-1 + Palbociclib; first compound 0.02 µM): 0.536
- relative viability (BMX-IN-1 + Palbociclib; first compound 0.2 µM): 0.526
- relative viability (BMX-IN-1 + Palbociclib; first compound 0.6325 µM): 0.555
- relative viability (BMX-IN-1 + Palbociclib; first compound 2 µM): 0.47
- relative viability (BMX-IN-1 + Navitoclax; first compound 0.02 µM): 0.979
- relative viability (BMX-IN-1 + Navitoclax; first compound 0.2 µM): 0.85
- relative viability (BMX-IN-1 + Navitoclax; first compound 0.6325 µM): 0.858
- relative viability (BMX-IN-1 + Navitoclax; first compound 2 µM): 0.738
- relative viability (BMX-IN-1 + Vorinostat; first compound 0.02 µM): 0.654
- relative viability (BMX-IN-1 + Vorinostat; first compound 0.2 µM): 0.728
- relative viability (BMX-IN-1 + Vorinostat; first compound 0.6325 µM): 0.602
- relative viability (BMX-IN-1 + Vorinostat; first compound 2 µM): 0.564
- relative viability (PAC-1 + AZD7762; first compound 0.02 µM): 0.242
- relative viability (PAC-1 + AZD7762; first compound 0.06325 µM): 0.349
- relative viability (PAC-1 + AZD7762; first compound 0.2 µM): 0.244
- relative viability (PAC-1 + AZD7762; first compound 2 µM): 0.314
- relative viability (PAC-1 + Vorinostat; first compound 0.02 µM): 0.692
- relative viability (PAC-1 + Vorinostat; first compound 0.06325 µM): 0.567
- relative viability (PAC-1 + Vorinostat; first compound 0.2 µM): 0.651
- relative viability (PAC-1 + Vorinostat; first compound 2 µM): 0.751
